How the values were obtained:
AR-VP16 [1] = molecular target: T1, AR-VP16 (Homo sapiens, UniProt P10275); test: AR-VP16 DNA Binding Assay, antagonist mode (HepG2 cells, 0.1 nM R1881); assay type: cell-based
T1 sequence (P10275 560-920 limits assumed): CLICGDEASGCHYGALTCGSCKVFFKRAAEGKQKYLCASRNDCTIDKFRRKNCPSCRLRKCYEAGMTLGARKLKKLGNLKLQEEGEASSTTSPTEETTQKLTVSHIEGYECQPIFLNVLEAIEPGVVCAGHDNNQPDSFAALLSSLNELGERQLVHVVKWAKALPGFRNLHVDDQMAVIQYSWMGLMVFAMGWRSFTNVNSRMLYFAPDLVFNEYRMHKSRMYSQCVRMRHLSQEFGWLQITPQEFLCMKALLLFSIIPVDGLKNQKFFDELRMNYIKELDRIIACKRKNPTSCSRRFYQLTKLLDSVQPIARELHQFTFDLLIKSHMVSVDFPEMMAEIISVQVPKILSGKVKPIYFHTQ
How it was run: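 Transfected HepG2 cells expressing AR-VP16 received serially diluted compound in charcoal-stripped-serum RPMI the day after transfection, with 0.1 nM R1881 (final) added only for antagonist testing. After 48 h, cells were lysed for measurement.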

AR-VP16 [2] = molecular target: T1, AR-VP16; test: AR-VP16 DNA Binding Assay, agonist mode (HepG2 cells); assay type: cell-based; details: Emax >20x DMSO control = agonist

SMILES	IC50 (AR-VP16 [1])	ARVP16 DNA Binding Assay (Agonist mode): Agonist? (AR-VP16 [2])
CN1CCC(NC(=O)c2ccc(N3C(=S)N(c4cnc(C#N)c(C(F)(F)F)c4)C(=O)C34CCC4)cc2F)CC1 [Compound 276, 4-(7-(6-Cyano-5-(trifluoromethyl)pyridin-3-yl)-8-oxo-6-thioxo-5,7-diazaspiro[3.4]octan-5-yl)-2-fluoro-N-(1-methylpiperidin-4-yl)benzamide]	> 1000 nM	No (Agonist defined as a compound whose Emax in the ARVP16 DNA Binding Assay (Agonist mode) is >20x DMSO control)
CCCCNC(=O)c1ccc(N2C(=S)N(c3cnc(C#N)c(C(F)(F)F)c3)C(=O)C23CCC3)cc1F [Compound 277, N-Butyl-4-(7-(6-cyano-5-(trifluoromethyl)pyridin-3-yl)-8-oxo-6-thioxo-5,7-diazaspiro[3.4]octan-5-yl)-2-fluorobenzamide]	< 1000 nM	No (Agonist defined as a compound whose Emax in the ARVP16 DNA Binding Assay (Agonist mode) is >20x DMSO control)
CC(C)NC(=O)c1ccc(N2C(=S)N(c3cnc(C#N)c(C(F)(F)F)c3)C(=O)C23CCC3)cc1F [Compound 279, 4-(7-(6-Cyano-5-(trifluoromethyl)pyridin-3-yl)-8-oxo-6-thioxo-5,7-diazaspiro[3.4]octan-5-yl)-2-fluoro-N-isopropylbenzamide]	< 1000 nM	No (Agonist defined as a compound whose Emax in the ARVP16 DNA Binding Assay (Agonist mode) is >20x DMSO control)
CC(C)CNC(=O)c1ccc(N2C(=S)N(c3cnc(C#N)c(C(F)(F)F)c3)C(=O)C23CCC3)cc1F [Compound 280, 4-(7-(6-Cyano-5-(trifluoromethyl)pyridin-3-yl)-8-oxo-6-thioxo-5,7-diazaspiro[3.4]octan-5-yl)-2-fluoro-N-isobutylbenzamide]	< 1000 nM	No (Agonist defined as a compound whose Emax in the ARVP16 DNA Binding Assay (Agonist mode) is >20x DMSO control)
N#Cc1ncc(N2C(=O)C3(CCC3)N(c3ccc(C(=O)NCC4CCCC4)c(F)c3)C2=S)cc1C(F)(F)F [Compound 283, 4-(7-(6-Cyano-5-(trifluoromethyl)pyridin-3-yl)-8-oxo-6-thioxo-5,7-diazaspiro[3.4]octan-5-yl)-N-(cyclopentylmethyl)-2-fluorobenzamide]	< 1000 nM	No (Agonist defined as a compound whose Emax in the ARVP16 DNA Binding Assay (Agonist mode) is >20x DMSO control)
N#Cc1ncc(N2C(=O)C3(CCC3)N(c3ccc(C(=O)NCc4cccc(Cl)c4)c(F)c3)C2=S)cc1C(F)(F)F [Compound 288, N-(3-Chlorobenzyl)-4-(7-(6-cyano-5-(trifluoromethyl)pyridin-3-yl)-8-oxo-6-thioxo-5,7-diazaspiro[3.4]octan-5-yl)-2-fluorobenzamide]	< 1000 nM	No (Agonist defined as a compound whose Emax in the ARVP16 DNA Binding Assay (Agonist mode) is >20x DMSO control)
N#Cc1ncc(N2C(=O)C3(CCC3)N(c3ccc(C(=O)NCc4ccc(Cl)cc4)c(F)c3)C2=S)cc1C(F)(F)F [Compound 289, N-(4-Chlorobenzyl)-4-(7-(6-cyano-5-(trifluoromethyl)pyridin-3-yl)-8-oxo-6-thioxo-5,7-diazaspiro[3.4]octan-5-yl)-2-fluorobenzamide]	< 1000 nM	No (Agonist defined as a compound whose Emax in the ARVP16 DNA Binding Assay (Agonist mode) is >20x DMSO control)
N#Cc1ncc(N2C(=O)C3(CCC3)N(c3ccc(C(=O)NCc4cnccn4)c(F)c3)C2=S)cc1C(F)(F)F [Compound 290, 4-(7-(6-Cyano-5-(trifluoromethyl)pyridin-3-yl)-8-oxo-6-thioxo-5,7-diazaspiro[3.4]octan-5-yl)-2-fluoro-N-(pyrazin-2-ylmethyl)benzamide]	< 1000 nM	No (Agonist defined as a compound whose Emax in the ARVP16 DNA Binding Assay (Agonist mode) is >20x DMSO control)
Cc1ccc(CNC(=O)c2ccc(N3C(=S)N(c4cnc(C#N)c(C(F)(F)F)c4)C(=O)C34CCC4)cc2F)o1 [Compound 291, 4-(7-(6-Cyano-5-(trifluoromethyl)pyridin-3-yl)-8-oxo-6-thioxo-5,7-diazaspiro[3.4]octan-5-yl)-2-fluoro-N-((5-methylfuran-2-yl)methyl)benzamide]	< 1000 nM	No (Agonist defined as a compound whose Emax in the ARVP16 DNA Binding Assay (Agonist mode) is >20x DMSO control)
N#Cc1ncc(N2C(=O)C3(CCC3)N(c3ccc(CCCC(=O)Nc4ccccc4)cc3)C2=S)cc1C(F)(F)F [Compound 292, 4-(4-(7-(6-Cyano-5-(trifluoromethyl)pyridin-3-yl)-8-oxo-6-thioxo-5,7-diazaspiro[3.4]octan-5-yl)phenyl)-N-phenylbutanamide]	> 1000 nM	No (Agonist defined as a compound whose Emax in the ARVP16 DNA Binding Assay (Agonist mode) is >20x DMSO control)
Cc1cc(N2C(=O)C3(CCC3)N(c3ccc(C(=O)NCc4ccc(F)cc4)c(F)c3)C2=S)cnc1C#N [Compound 293, 4-(7-(6-Cyano-5-methylpyridin-3-yl)-8-oxo-6-thioxo-5,7-diazaspiro[3.4]octan-5-yl)-2-fluoro-N-(4-fluorobenzyl)benzamide]	< 1000 nM	No (Agonist defined as a compound whose Emax in the ARVP16 DNA Binding Assay (Agonist mode) is >20x DMSO control)
Cc1cc(N2C(=O)C3(CCC3)N(c3ccc(C(=O)Nc4ccccc4Cl)c(F)c3)C2=S)cnc1C#N [Compound 294, N-(2-Chlorophenyl)-4-(7-(6-cyano-5-methylpyridin-3-yl)-8-oxo-6-thioxo-5,7-diazaspiro[3.4]octan-5-yl)-2-fluorobenzamide]	< 1000 nM	No (Agonist defined as a compound whose Emax in the ARVP16 DNA Binding Assay (Agonist mode) is >20x DMSO control)
Cc1cc(N2C(=O)C3(CCC3)N(c3ccc(C(=O)Nc4cccc(Cl)c4)c(F)c3)C2=S)cnc1C#N [Compound 295, N-(3-Chlorophenyl)-4-(7-(6-cyano-5-methylpyridin-3-yl)-8-oxo-6-thioxo-5,7-diazaspiro[3.4]octan-5-yl)-2-fluorobenzamide]	< 1000 nM	No (Agonist defined as a compound whose Emax in the ARVP16 DNA Binding Assay (Agonist mode) is >20x DMSO control)
Cc1cc(N2C(=O)C3(CCC3)N(c3ccc(C(=O)Nc4ccc(Cl)cc4)c(F)c3)C2=S)cnc1C#N [Compound 296, N-(4-Chlorophenyl)-4-(7-(6-cyano-5-methylpyridin-3-yl)-8-oxo-6-thioxo-5,7-diazaspiro[3.4]octan-5-yl)-2-fluorobenzamide]	< 1000 nM	No (Agonist defined as a compound whose Emax in the ARVP16 DNA Binding Assay (Agonist mode) is >20x DMSO control)
Cc1cc(N2C(=O)C3(CCC3)N(c3ccc(C(=O)Nc4ccccc4F)c(F)c3)C2=S)cnc1C#N [Compound 297, 4-(7-(6-Cyano-5-methylpyridin-3-yl)-8-oxo-6-thioxo-5,7-diazaspiro[3.4]octan-5-yl)-2-fluoro-N-(2-fluorophenyl)benzamide]	< 1000 nM	No (Agonist defined as a compound whose Emax in the ARVP16 DNA Binding Assay (Agonist mode) is >20x DMSO control)
